Reference: patent US12331054B2, “Perk inhibiting imidazolopyrazine compounds” (HiberCell, Inc., priority 2019, dated 2025)
pIC50: −log10 of the molar value.

Assays:
[1] = biological target: Recombinant human EIF2AK3 (PERK) catalytic domain (amino acids 536-1116) (Homo sapiens (Human), UniProt Q9NZJ5); assay: PERK In Vitro Activity Assay (isolated), TR-FRET kinase assay; settings: isolated PERK enzyme, 1.5 μM ATP, read-out: Biochemical IC50
Excerpt: PERK In Vitro Activity Assay (isolated):
In vitro Inhibition of PERK Enzyme Activity (isolated) Recombinant human EIF2AK2 (PKR) catalytic domain (amino acids 252-551), EIF2AK3 (PERK) catalytic domain (amino acids 536-1116), GFP-eIF2a substrate, and Terbium-labelled phospho-eIF2a antibody is obtained (Invitrogen, Carlsbad, CA).
Express and purify HIS-SUMO-GCN2 catalytic domain (amino acids 584-1019) from E. coli. Perform TR-FRET kinase assays in the absence or presence of inhibitors in a reaction buffer consisting of 50 mM HEPES, pH 7.5, 10 mM MgCb, 1.0 mM EGTA, and 0.01% Brij-35, and 100-200 nM GFP-eIF2a substrate. […] Add test compound, initiate the reaction by addition of enzyme, and incubate at room temperature for 45 minutes. Stop the reaction by addition of EDTA to a final concentration of 10 mM, add Terbium-labelled phospho-eIF2a antibody at a final concentration of 2 nM, and incubate for 90 minutes. Monitor the resulting fluorescence in an EnVison® Multilabel reader (PerkinElmer, Waltham, MA). Determine TR-FRET ratios and the resulting IC50 values using a 4-parameter nonlinear logistic equation as shown: Y=(A+((B−A)/(1+(C/x)AD)))) where, Y=% specific inhibition, A=Bottom of the curve, B=Top of the curve, C=absolute IC50 (concentration causing 50% inhibition), and D=hill slope.

[2] = test system: eIF2α in HEK293-EGFP-eIF2α cells; assay: PERK Cellular Assay (HEK293-EGFP-eIF2α cells, tunicamycin-induced ER stress, TR-FRET); type: cell-based; settings: tunicamycin 2 hours
Method: Stable cell lines were created in HEK293 cells using lentiviral particles harboring an expression vector for GFP-eIF2α. Cells were selected using puromycin and enriched using fluorescence activated cell sorting against GFP. HEK293-EGFP-eIF2α cells were plated at 5000 cells/well in 384-well assay plates and incubated overnight at 37° C., 5% CO2. Inhibitor compounds were added to the wells by Echo acoustic dispensing and incubated for 30 minutes at 37° C., 5% CO2 prior to induction of ER stress by addition of tunicamycin to […] for 2 hours. Cells were lysed and TR-FRET was measured in an EnVision plate reader (PerkinElmer). FRET ratio data was normalized to signal from lysates treated with DMSO vehicle control and plotted as percent inhibition against 10-point; 3-fold dilution series of inhibitors. IC50 values were calculated using 4-parameter logistical fitting in XLFit.

Chain of Recombinant human EIF2AK3 (PERK) catalytic domain (amino acids 536-1116) (Q9NZJ5 536-1116): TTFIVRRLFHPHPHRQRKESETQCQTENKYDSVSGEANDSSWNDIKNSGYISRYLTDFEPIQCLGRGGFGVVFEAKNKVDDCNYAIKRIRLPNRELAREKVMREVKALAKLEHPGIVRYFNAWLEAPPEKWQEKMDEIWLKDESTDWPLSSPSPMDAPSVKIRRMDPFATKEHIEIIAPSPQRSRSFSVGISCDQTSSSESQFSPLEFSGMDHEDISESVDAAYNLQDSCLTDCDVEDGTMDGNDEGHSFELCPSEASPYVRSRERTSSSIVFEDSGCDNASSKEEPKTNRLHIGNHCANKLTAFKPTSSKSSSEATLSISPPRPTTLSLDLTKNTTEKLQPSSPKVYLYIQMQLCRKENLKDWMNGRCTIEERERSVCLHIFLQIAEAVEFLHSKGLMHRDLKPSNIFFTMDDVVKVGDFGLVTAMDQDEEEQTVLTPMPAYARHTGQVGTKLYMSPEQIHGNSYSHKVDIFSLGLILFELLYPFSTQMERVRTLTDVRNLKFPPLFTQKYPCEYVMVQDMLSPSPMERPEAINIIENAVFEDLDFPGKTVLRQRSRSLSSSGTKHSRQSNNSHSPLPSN

Compound: [2H]C([2H])([2H])c1nc(-c2ccc(NC(=O)C(O)c3cccc(C(F)(F)F)c3)cc2C)c2c(N)ncc(C)n12 (stereo not shown) [Example 16, N-[4-[8-amino-5-methyl-3-(trideuteriomethyl)imidazo[1,5-a]pyrazin-1-yl]-3-methyl-phenyl]-2-hydroxy-2-[3-(trifluoromethyl)phenyl]acetamide]
- pIC50 [1]: 5.70 to 6.00
- pIC50 [2]: < 5.30

Compound: [2H]C([2H])([2H])c1nc(-c2ccc(NC(=O)C(O)c3cccc(C(F)(F)F)c3)cc2C)c2c(N)ncc(C)n12 (stereo not shown) [Example 17, N-[4-[8-amino-5-methyl-3-(trideuteriomethyl)imidazo[1,5-a]pyrazin-1-yl]-3-methyl-phenyl]-2-hydroxy-2-[3-(trifluoromethyl)phenyl]acetamide]
- pIC50 [1]: 7.60 to 9.00
- pIC50 [2]: 6.60 to 7.00

Compound: [2H]C([2H])([2H])c1nc(-c2ccc(NC(=O)C(O)c3cccc(C(F)(F)F)c3)cc2C)c2c(N)ncc(Cl)n12 (stereo not shown) [Example 18, N-[4-[8-amino-5-chloro-3-(trideuteriomethyl)imidazo[1,5-a]pyrazin-1-yl]-3-methyl-phenyl]-2-hydroxy-2-[3-(trifluoromethyl)phenyl]acetamide]
- pIC50 [1]: 7.60 to 9.00
- pIC50 [2]: 7.60 to 9.00

Compound: [2H]C([2H])([2H])c1nc(-c2ccc(NC(=O)C(O)c3cccc(C(F)(F)F)c3)cc2C)c2c(N)ncc(Cl)n12 (stereo not shown) [Example 19, N-[4-[8-amino-5-chloro-3-(trideuteriomethyl)imidazo[1,5-a]pyrazin-1-yl]-3-methyl-phenyl]-2-hydroxy-2-[3-(trifluoromethyl)phenyl]acetamide]
- pIC50 [1]: 7.60 to 9.00
- pIC50 [2]: 7.30 to 7.59

Compound: [2H]C([2H])([2H])c1nc(-c2ccc(NC(=O)C(O)c3cccc(C(F)(F)F)c3)cc2C)c2c(N)ncc(C(F)(F)F)n12 (stereo not shown) [Example 20, N-[4-[8-amino-3-(trideuteriomethyl)-5-(trifluoromethyl)imidazo[1,5-a]pyrazin-1-yl]-3-methyl-phenyl]-2-hydroxy-2-[3-(trifluoromethyl)phenyl]acetamide]
- pIC50 [1]: 7.60 to 9.00
- pIC50 [2]: 7.30 to 7.59

Compound: [2H]C([2H])([2H])c1nc(-c2ccc(NC(=O)C(O)c3cccc(C(F)(F)F)c3)cc2C)c2c(N)ncc(C(F)(F)F)n12 (stereo not shown) [Example 21, N-[4-[8-amino-3-(trideuteriomethyl)-5-(trifluoromethyl)imidazo[1,5-a]pyrazin-1-yl]-3-methyl-phenyl]-2-hydroxy-2-[3-(trifluoromethyl)phenyl]acetamide]
- pIC50 [1]: 7.00 to 7.29
- pIC50 [2]: 6.00 to 6.30

Compound: Cc1cc(NC(=O)C(O)c2cccc(F)c2)ccc1-c1nc(C)n2c(C(F)(F)F)cnc(N)c12 (stereo not shown) [Example 26, N-(4-(8-amino-3-methyl-5-(trifluoromethyl)imidazo[1,5-a]pyrazin-1-yl)-3-methylphenyl)-2-(3-fluorophenyl)-2-hydroxyacetamide]
- pIC50 [1]: 7.60 to 9.00
- pIC50 [2]: 7.30 to 7.59

Compound: Cc1cc(NC(=O)C(O)c2cccc(F)c2)ccc1-c1nc(C)n2c(C(F)(F)F)cnc(N)c12 (stereo not shown) [Example 27, N-(4-(8-amino-3-methyl-5-(trifluoromethyl)imidazo[1,5-a]pyrazin-1-yl)-3-methylphenyl)-2-(3-fluorophenyl)-2-hydroxyacetamide]
- pIC50 [1]: 7.60 to 9.00
- pIC50 [2]: 6.30 to 6.60

Compound: Cc1cc(NC(=O)C(O)c2cccc(F)c2)ccc1-c1nc(C)n2c(Cl)cnc(N)c12 (stereo not shown) [Example 28, N-(4-(8-amino-5-chloro-3-methylimidazo[1,5-a]pyrazin-1-yl)-3-methylphenyl)-2-(3-fluorophenyl)-2-hydroxyacetamide]
- pIC50 [1]: 7.60 to 9.00
- pIC50 [2]: 7.60 to 9.00

Compound: Cc1cc(NC(=O)C(O)c2cccc(F)c2)ccc1-c1nc(C)n2c(Cl)cnc(N)c12 (stereo not shown) [Example 29, N-(4-(8-amino-5-chloro-3-methylimidazo[1,5-a]pyrazin-1-yl)-3-methylphenyl)-2-(3-fluorophenyl)-2-hydroxyacetamide]
- pIC50 [1]: 7.60 to 9.00
- pIC50 [2]: 7.30 to 7.59

Compound: [2H]C([2H])([2H])c1nc(-c2ccc(NC(=O)C(O)c3cccc(F)c3)cc2C)c2c(N)ncc(C(F)(F)F)n12 (stereo not shown) [Example 30, N-[4-[8-amino-3-(trideuteriomethyl)-5-(trifluoromethyl)imidazo[1,5-a]pyrazin-1-yl]-3-methyl-phenyl]-2-(3-fluorophenyl)-2-hydroxy-acetamide]
- pIC50 [1]: 7.60 to 9.00
- pIC50 [2]: 7.60 to 9.00

Compound: [2H]C([2H])([2H])c1nc(-c2ccc(NC(=O)C(O)c3cccc(F)c3)cc2C)c2c(N)ncc(C(F)(F)F)n12 (stereo not shown) [Example 31, N-[4-[8-amino-3-(trideuteriomethyl)-5-(trifluoromethyl)imidazo[1,5-a]pyrazin-1-yl]-3-methyl-phenyl]-2-(3-fluorophenyl)-2-hydroxy-acetamide]
- pIC50 [1]: 7.60 to 9.00
- pIC50 [2]: 6.30 to 6.60

Compound: [2H]C([2H])([2H])c1nc(-c2ccc(NC(=O)C(O)c3cccc(F)c3)cc2C)c2c(N)ncc(Cl)n12 (stereo not shown) [Example 32, N-[4-[8-amino-5-chloro-3-(trideuteriomethyl)imidazo[1,5-a]pyrazin-1-yl]-3-methyl-phenyl]-2-(3-fluorophenyl)-2-hydroxy-acetamide]
- pIC50 [1]: 7.60 to 9.00
- pIC50 [2]: 7.60 to 9.00

Compound: [2H]C([2H])([2H])c1nc(-c2ccc(NC(=O)C(O)c3cccc(F)c3)cc2C)c2c(N)ncc(Cl)n12 (stereo not shown) [Example 33, N-[4-[8-amino-5-chloro-3-(trideuteriomethyl)imidazo[1,5-a]pyrazin-1-yl]-3-methyl-phenyl]-2-(3-fluorophenyl)-2-hydroxy-acetamide]
- pIC50 [1]: 7.60 to 9.00
- pIC50 [2]: 7.00 to 7.29

Compound: [2H]C([2H])([2H])c1nc(-c2ccc(NC(=O)C(O)c3cccc(Cl)c3)cc2C)c2c(N)nc(C)cn12 (stereo not shown) [Example 34, N-[4-[8-amino-6-methyl-3-(trideuteriomethyl)imidazo[1,5-a]pyrazin-1-yl]-3-methyl-phenyl]-2-(3-chlorophenyl)-2-hydroxy-acetamide]
- pIC50 [1]: 7.60 to 9.00
- pIC50 [2]: 7.30 to 7.59

Compound: [2H]C([2H])([2H])c1nc(-c2ccc(NC(=O)C(O)c3cccc(Cl)c3)cc2C)c2c(N)nc(C)cn12 (stereo not shown) [Example 35, N-[4-[8-amino-6-methyl-3-(trideuteriomethyl)imidazo[1,5-a]pyrazin-1-yl]-3-methyl-phenyl]-2-(3-chlorophenyl)-2-hydroxy-acetamide]
- pIC50 [1]: 6.60 to 7.00
- pIC50 [2]: 5.70 to 6.00

Compound: [2H]C([2H])([2H])c1nc(-c2ccc(NC(=O)C(O)c3cccc(Cl)c3)cc2C)c2c(N)ncc(C)n12 (stereo not shown) [Example 36, N-[4-[8-amino-5-methyl-3-(trideuteriomethyl)imidazo[1,5-a]pyrazin-1-yl]-3-methyl-phenyl]-2-(3-chlorophenyl)-2-hydroxy-acetamide]
- pIC50 [1]: 7.60 to 9.00
- pIC50 [2]: 7.60 to 9.00

Compound: [2H]C([2H])([2H])c1nc(-c2ccc(NC(=O)C(O)c3cccc(Cl)c3)cc2C)c2c(N)ncc(C)n12 (stereo not shown) [Example 37, N-[4-[8-amino-5-methyl-3-(trideuteriomethyl)imidazo[1,5-a]pyrazin-1-yl]-3-methyl-phenyl]-2-(3-chlorophenyl)-2-hydroxy-acetamide]
- pIC50 [1]: 7.60 to 9.00
- pIC50 [2]: 7.00 to 7.29

Compound: Cc1cc(NC(=O)C(O)c2cccc(Cl)c2)ccc1-c1nc(C)n2c(C)cnc(N)c12 (stereo not shown) [Example 38, N-(4-(8-amino-3,5-dimethylimidazo [1,5-a]pyrazin-1-yl)-3-methyl-phenyl)-2-(3-chlorophenyl)-2-hydroxyacetamide]
- pIC50 [1]: 7.60 to 9.00
- pIC50 [2]: 7.60 to 9.00

Compound: Cc1cc(NC(=O)C(O)c2cccc(Cl)c2)ccc1-c1nc(C)n2c(C)cnc(N)c12 (stereo not shown) [Example 39, N-(4-(8-amino-3,5-dimethylimidazo [1,5-a]pyrazin-1-yl)-3-methyl-phenyl)-2-(3-chlorophenyl)-2-hydroxyacetamide]
- pIC50 [1]: 7.60 to 9.00
- pIC50 [2]: 6.60 to 7.00

Compound: [2H]C([2H])([2H])c1nc(-c2ccc(NC(=O)C(O)c3cccc(Cl)c3)cc2C)c2c(N)ncc(Cl)n12 (stereo not shown) [Example 42, N-[4-[8-amino-5-chloro-3-(trideuteriomethyl)imidazo[1,5-a]pyrazin-1-yl]-3-methyl-phenyl]-2-(3-chlorophenyl)-2-hydroxy-acetamide]
- pIC50 [1]: 7.60 to 9.00
- pIC50 [2]: 7.60 to 9.00

Compound: [2H]C([2H])([2H])c1nc(-c2ccc(NC(=O)C(O)c3cccc(Cl)c3)cc2C)c2c(N)ncc(Cl)n12 (stereo not shown) [Example 43, N-[4-[8-amino-5-chloro-3-(trideuteriomethyl)imidazo[1,5-a]pyrazin-1-yl]-3-methyl-phenyl]-2-(3-chlorophenyl)-2-hydroxy-acetamide]
- pIC50 [1]: 7.60 to 9.00
- pIC50 [2]: 7.30 to 7.59

Compound: [2H]C([2H])([2H])c1nc(-c2ccc(NC(=O)C(O)c3cc(F)cc(F)c3)cc2C)c2c(N)nc(C)cn12 (stereo not shown) [Example 44, N-[4-[8-amino-6-methyl-3-(trideuteriomethyl)imidazo[1,5-a]pyrazin-1-yl]-3-methyl-phenyl]-2-(3,5-difluoro-phenyl)-2-hydroxy-acetamide]
- pIC50 [1]: 7.60 to 9.00
- pIC50 [2]: 6.60 to 7.00
